{"source": "paper PMC10046369", "about": "“Low-Affinity/High-Selectivity Dopamine Transport Inhibition Sufficient to Rescue Cognitive Functions in the Aging Rat” (Biomolecules, 2023)", "assay_in_all_cases": "cell-based", "design_in_all_cases": "Eurofins Cerep functional GPCR screen, antagonist mode, inhibition of control agonist response", "conditions_in_all_cases": "read-out: % Inhibition of Control Agonist Response, Mean", "key": {"[1]": {"molecular_target": "T1, CysLT2 (LTC4) (Homo sapiens, UniProt Q9NS75)", "T1 construct": "gene CYSLTR2", "T1 sequence (Q9NS75 whole entry)": "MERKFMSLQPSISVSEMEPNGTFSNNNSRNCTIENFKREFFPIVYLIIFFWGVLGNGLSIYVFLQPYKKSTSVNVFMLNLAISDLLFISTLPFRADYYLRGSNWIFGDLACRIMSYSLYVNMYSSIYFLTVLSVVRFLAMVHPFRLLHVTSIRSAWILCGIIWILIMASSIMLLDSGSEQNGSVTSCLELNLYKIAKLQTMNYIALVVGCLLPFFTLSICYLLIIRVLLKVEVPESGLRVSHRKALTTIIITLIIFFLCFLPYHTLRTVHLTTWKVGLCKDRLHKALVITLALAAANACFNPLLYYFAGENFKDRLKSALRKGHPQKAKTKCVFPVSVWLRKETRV"}, "[2]": {"molecular_target": "T2, ETB (Homo sapiens, UniProt P24530)", "T2 construct": "gene EDNRB"}, "[3]": {"molecular_target": "T3, α2B (Homo sapiens, UniProt P18089)", "T3 construct": "gene ADRA2B", "T3 sequence (P18089 whole entry)": "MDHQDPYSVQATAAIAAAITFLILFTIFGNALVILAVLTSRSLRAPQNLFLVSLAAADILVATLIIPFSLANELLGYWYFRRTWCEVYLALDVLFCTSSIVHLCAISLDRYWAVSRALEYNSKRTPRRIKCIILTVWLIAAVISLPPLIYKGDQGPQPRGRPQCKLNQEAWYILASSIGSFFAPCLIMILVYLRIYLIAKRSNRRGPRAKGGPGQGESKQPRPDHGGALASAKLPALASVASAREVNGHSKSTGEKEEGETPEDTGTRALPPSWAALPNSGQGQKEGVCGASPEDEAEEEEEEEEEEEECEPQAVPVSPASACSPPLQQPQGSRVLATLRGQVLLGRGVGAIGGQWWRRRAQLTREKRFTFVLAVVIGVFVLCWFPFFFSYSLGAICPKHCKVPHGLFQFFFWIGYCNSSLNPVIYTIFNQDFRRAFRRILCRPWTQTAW"}, "[4]": {"molecular_target": "T4, CaS (Homo sapiens, UniProt P41180)", "T4 construct": "gene CASR"}, "[5]": {"molecular_target": "T5, CysLT1 (LTD4) (Homo sapiens, UniProt Q9Y271)", "T5 construct": "gene CYSLTR1"}, "[6]": {"molecular_target": "T6, D5 (Homo sapiens, UniProt P21918)", "T6 construct": "gene DRD5"}, "[7]": {"molecular_target": "T7, GPR109A (Homo sapiens, UniProt Q8TDS4)", "T7 construct": "gene HCAR2", "T7 sequence (Q8TDS4 whole entry)": "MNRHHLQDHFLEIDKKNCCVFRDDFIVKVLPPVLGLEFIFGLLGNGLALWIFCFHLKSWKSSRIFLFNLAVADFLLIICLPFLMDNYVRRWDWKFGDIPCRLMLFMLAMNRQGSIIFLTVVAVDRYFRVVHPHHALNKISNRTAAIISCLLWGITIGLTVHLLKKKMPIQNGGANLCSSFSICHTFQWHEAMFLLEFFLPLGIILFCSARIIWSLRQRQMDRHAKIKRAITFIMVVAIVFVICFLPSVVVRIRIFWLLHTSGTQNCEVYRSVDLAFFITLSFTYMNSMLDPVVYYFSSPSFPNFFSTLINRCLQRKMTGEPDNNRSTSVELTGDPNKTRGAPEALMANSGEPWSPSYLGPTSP"}, "[8]": {"molecular_target": "T8, TSH (Homo sapiens, UniProt P16473)", "T8 construct": "gene TSHR"}, "[9]": {"molecular_target": "T9, H4 (Homo sapiens, UniProt Q9H3N8)", "T9 construct": "gene HRH4", "T9 sequence (Q9H3N8 whole entry)": "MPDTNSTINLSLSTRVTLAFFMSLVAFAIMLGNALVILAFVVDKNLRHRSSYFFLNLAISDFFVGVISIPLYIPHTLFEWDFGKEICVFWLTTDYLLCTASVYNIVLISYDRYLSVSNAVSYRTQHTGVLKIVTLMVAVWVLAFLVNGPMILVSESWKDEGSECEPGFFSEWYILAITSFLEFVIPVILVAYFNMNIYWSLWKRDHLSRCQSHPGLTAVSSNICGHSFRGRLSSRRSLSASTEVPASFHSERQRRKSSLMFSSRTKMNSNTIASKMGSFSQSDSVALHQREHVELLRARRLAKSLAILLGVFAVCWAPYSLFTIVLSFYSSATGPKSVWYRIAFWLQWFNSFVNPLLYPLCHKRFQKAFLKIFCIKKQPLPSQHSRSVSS"}, "[10]": {"molecular_target": "T10, FFA4 (GPR120) (Homo sapiens, UniProt Q5NUL3)", "T10 construct": "gene FFAR4"}, "[11]": {"molecular_target": "CCR3 (Homo sapiens, UniProt P51677)"}, "[12]": {"molecular_target": "T11, FFA3 (Homo sapiens, UniProt O14843)", "T11 construct": "gene FFAR3", "T11 sequence (O14843 whole entry)": "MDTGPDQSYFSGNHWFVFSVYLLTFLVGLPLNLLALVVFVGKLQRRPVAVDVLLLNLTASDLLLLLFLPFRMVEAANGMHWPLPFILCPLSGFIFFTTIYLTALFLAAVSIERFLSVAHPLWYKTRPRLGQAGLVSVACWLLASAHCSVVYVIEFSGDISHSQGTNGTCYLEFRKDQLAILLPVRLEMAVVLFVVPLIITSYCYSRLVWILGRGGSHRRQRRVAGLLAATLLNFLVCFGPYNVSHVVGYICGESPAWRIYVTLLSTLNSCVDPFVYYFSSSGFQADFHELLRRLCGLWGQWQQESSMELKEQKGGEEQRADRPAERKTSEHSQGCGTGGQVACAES"}, "[13]": {"molecular_target": "T12, GAL1 (Homo sapiens, UniProt P47211)", "T12 construct": "gene GALR1", "T12 sequence (P47211 whole entry)": "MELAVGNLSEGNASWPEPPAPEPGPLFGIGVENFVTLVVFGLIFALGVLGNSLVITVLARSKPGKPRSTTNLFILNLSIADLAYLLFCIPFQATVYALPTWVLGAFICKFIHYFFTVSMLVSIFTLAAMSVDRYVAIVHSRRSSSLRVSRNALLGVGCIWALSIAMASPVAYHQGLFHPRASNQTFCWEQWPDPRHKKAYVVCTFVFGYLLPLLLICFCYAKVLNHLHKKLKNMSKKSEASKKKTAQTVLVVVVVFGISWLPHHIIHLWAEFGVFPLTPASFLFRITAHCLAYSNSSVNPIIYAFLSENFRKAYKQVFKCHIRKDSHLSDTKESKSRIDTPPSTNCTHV"}, "[14]": {"molecular_target": "T13, CGRP (Homo sapiens, UniProt Q16602)", "T13 construct": "gene CALCRL"}, "[15]": {"molecular_target": "CXCR3 (Homo sapiens, UniProt P49682)"}, "[16]": {"molecular_target": "CCR8 (Homo sapiens, UniProt P51685)"}, "[17]": {"molecular_target": "T14, A1 (Homo sapiens, UniProt P30542)", "T14 construct": "gene ADORA1", "T14 sequence (P30542 whole entry)": "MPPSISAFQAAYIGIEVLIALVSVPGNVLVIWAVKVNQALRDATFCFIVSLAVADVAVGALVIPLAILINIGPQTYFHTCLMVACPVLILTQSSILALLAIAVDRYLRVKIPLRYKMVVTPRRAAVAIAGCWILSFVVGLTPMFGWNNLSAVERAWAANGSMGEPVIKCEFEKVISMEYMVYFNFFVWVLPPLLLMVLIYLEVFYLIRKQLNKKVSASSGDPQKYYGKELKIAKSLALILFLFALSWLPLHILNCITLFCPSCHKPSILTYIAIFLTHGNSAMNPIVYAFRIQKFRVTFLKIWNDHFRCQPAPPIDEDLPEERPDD"}, "[18]": {"molecular_target": "T15, ChemR23 (Homo sapiens, UniProt Q99788)", "T15 construct": "gene CMKLR1", "T15 sequence (Q99788 whole entry)": "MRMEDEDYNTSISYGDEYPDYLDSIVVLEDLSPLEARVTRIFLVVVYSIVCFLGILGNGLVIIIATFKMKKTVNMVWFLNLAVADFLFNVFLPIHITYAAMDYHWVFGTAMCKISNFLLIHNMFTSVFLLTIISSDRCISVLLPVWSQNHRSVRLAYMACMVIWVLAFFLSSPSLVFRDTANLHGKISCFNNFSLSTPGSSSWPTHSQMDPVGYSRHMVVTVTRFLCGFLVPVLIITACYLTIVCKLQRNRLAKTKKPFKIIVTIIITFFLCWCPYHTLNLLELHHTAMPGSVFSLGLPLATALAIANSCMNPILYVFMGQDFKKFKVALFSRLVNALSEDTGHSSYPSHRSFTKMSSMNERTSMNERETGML"}, "[19]": {"molecular_target": "T16, β1 (Homo sapiens, UniProt P08588)", "T16 construct": "gene ADRB1"}, "[20]": {"molecular_target": "CX3CR1 (Homo sapiens, UniProt P49238)", "sequence (P49238 whole entry)": "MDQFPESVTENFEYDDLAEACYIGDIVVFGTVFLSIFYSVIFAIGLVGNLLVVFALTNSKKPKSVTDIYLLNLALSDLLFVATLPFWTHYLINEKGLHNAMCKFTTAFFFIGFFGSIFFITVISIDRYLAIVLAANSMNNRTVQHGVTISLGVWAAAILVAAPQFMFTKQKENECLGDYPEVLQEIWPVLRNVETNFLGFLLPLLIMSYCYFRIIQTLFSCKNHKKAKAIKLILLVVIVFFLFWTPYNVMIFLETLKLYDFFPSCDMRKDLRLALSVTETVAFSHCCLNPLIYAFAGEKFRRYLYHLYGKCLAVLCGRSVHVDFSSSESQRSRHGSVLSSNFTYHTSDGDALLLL"}, "[21]": {"molecular_target": "T17, B1 (Homo sapiens, UniProt P46663)", "T17 construct": "gene BDKRB1", "T17 sequence (P46663 whole entry)": "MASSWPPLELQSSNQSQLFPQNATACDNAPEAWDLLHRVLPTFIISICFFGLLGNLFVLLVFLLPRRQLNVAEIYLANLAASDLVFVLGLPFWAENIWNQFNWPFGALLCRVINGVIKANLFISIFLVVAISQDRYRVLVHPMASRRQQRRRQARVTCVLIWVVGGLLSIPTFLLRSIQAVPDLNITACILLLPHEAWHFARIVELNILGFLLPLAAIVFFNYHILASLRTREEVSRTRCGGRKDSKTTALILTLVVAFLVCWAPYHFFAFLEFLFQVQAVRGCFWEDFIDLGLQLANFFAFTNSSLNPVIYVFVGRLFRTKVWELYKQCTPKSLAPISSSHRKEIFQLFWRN"}, "[22]": {"molecular_target": "CCR6 (Homo sapiens, UniProt P51684)", "sequence (P51684 whole entry)": "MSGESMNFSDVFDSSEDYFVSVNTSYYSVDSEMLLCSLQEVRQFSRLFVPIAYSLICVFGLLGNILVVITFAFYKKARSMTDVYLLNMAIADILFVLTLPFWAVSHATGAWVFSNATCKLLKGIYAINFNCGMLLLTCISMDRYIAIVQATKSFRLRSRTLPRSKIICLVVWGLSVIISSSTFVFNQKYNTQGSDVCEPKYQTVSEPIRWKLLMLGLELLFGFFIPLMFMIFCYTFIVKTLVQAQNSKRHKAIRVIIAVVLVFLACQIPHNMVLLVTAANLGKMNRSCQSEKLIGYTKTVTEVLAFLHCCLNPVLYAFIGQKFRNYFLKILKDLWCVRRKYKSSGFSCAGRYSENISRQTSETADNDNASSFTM"}, "[23]": {"molecular_target": "T18, BB2 (Homo sapiens, UniProt P30550)", "T18 construct": "gene GRPR"}, "[24]": {"molecular_target": "T19, A2B (Homo sapiens, UniProt P29275)", "T19 construct": "gene ADORA2B"}, "[25]": {"molecular_target": "GPR39 (Homo sapiens, UniProt O43194)", "sequence (O43194 whole entry)": "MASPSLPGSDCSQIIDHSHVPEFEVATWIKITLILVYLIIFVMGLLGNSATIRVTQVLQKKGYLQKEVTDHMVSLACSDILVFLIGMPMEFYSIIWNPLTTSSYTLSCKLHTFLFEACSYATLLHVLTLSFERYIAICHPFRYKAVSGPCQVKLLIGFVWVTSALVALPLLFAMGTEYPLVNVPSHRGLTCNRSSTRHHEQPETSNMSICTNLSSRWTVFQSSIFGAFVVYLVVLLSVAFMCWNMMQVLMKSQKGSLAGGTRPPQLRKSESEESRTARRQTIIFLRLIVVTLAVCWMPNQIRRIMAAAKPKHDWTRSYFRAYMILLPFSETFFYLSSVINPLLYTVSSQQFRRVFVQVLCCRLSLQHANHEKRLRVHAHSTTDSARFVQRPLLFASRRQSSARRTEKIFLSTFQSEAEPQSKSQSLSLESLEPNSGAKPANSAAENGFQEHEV"}, "[26]": {"molecular_target": "CCR4 (Homo sapiens, UniProt P51679)", "sequence (P51679 whole entry)": "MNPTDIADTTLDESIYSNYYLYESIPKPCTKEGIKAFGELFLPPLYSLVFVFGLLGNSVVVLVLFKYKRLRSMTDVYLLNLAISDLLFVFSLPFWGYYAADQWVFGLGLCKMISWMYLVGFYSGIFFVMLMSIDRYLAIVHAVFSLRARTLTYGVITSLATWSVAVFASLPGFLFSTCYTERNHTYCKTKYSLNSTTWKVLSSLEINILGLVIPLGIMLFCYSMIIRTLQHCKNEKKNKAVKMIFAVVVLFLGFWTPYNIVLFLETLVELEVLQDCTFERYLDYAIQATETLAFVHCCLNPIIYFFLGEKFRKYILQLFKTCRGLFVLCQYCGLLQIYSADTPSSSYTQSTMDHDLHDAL"}}, "data": [{"smiles": "[O-][S@@+](Cc1cncs1)C(c1ccccc1)c1ccccc1", "note": "[S-CE-123, (S)-5-((Benzhydrylsulfinyl)Methyl)Thiazole]", "values": [{"measurement": "inhibition at 2.8 µM", "setting": "[1]", "value": 4.5, "unit": "%"}, {"measurement": "inhibition at 2.8 µM", "setting": "[2]", "value": 1.5, "unit": "%"}, {"measurement": "inhibition at 2.8 µM", "setting": "[3]", "value": -8.3, "unit": "%"}, {"measurement": "inhibition at 2.8 µM", "setting": "[4]", "value": -6.4, "unit": "%"}, {"measurement": "inhibition at 2.8 µM", "setting": "[5]", "value": -12.9, "unit": "%"}, {"measurement": "inhibition at 2.8 µM", "setting": "[6]", "value": -10.8, "unit": "%"}, {"measurement": "inhibition at 2.8 µM", "setting": "[7]", "value": -11.6, "unit": "%"}, {"measurement": "inhibition at 2.8 µM", "setting": "[8]", "value": -6.1, "unit": "%"}, {"measurement": "inhibition at 2.8 µM", "setting": "[9]", "value": 3.4, "unit": "%"}, {"measurement": "inhibition at 2.8 µM", "setting": "[10]", "value": -14.4, "unit": "%"}, {"measurement": "inhibition at 2.8 µM", "setting": "[11]", "value": -10.7, "unit": "%"}, {"measurement": "inhibition at 2.8 µM", "setting": "[12]", "value": -1.4, "unit": "%"}, {"measurement": "inhibition at 2.8 µM", "setting": "[13]", "value": 2.3, "unit": "%"}, {"measurement": "inhibition at 2.8 µM", "setting": "[14]", "value": -18.8, "unit": "%"}, {"measurement": "inhibition at 2.8 µM", "setting": "[15]", "value": -7.8, "unit": "%"}, {"measurement": "inhibition at 2.8 µM", "setting": "[16]", "value": -19.9, "unit": "%"}, {"measurement": "inhibition at 2.8 µM", "setting": "[17]", "value": 10.6, "unit": "%"}, {"measurement": "inhibition at 2.8 µM", "setting": "[18]", "value": -1.6, "unit": "%"}, {"measurement": "inhibition at 2.8 µM", "setting": "[19]", "value": 18.4, "unit": "%"}, {"measurement": "inhibition at 2.8 µM", "setting": "[20]", "value": -15.8, "unit": "%"}, {"measurement": "inhibition at 2.8 µM", "setting": "[21]", "value": -10.4, "unit": "%"}, {"measurement": "inhibition at 2.8 µM", "setting": "[22]", "value": -26.7, "unit": "%"}, {"measurement": "inhibition at 2.8 µM", "setting": "[23]", "value": -23.2, "unit": "%"}, {"measurement": "inhibition at 2.8 µM", "setting": "[24]", "value": -11.8, "unit": "%"}, {"measurement": "inhibition at 2.8 µM", "setting": "[25]", "value": 1.6, "unit": "%"}, {"measurement": "inhibition at 2.8 µM", "setting": "[26]", "value": -5.8, "unit": "%"}]}]}
